Experimental data from the COVID Moonshot data (paper PMC11187573), “Identification of SARS-CoV-2 Mpro inhibitors through deep reinforcement learning for de novo drug design and computational chemistry approaches” (RSC Medicinal Chemistry, 2024).

Assays:
[1] = target: SARS-CoV-2 Main Protease (SARS-CoV-2) (UniProt P0DTD1)
[2] = target: SARS-CoV-2 Main Protease (SARS-CoV-2) (UniProt P0DTD1); remark: listed apart in the source

Row | SMILES | inhibition ([1]; 20.0 µM) [%] | inhibition ([1]; 50.0 µM) [%] | relative solubility at 20 uM | relative solubility at 100 uM | inhibition ([2]; 20.0 µM) [%] | inhibition ([2]; 50.0 µM) [%] | IC50 [2] [µM]
1 | C=CC(=O)N(c1ccc(C(C)(C)C)cc1)C(C(=O)NC(C)(C)C)c1cncc(OCC)c1 (stereo not given) | -1.87 | 2.59 | 0.99 | 0.89 | -0.816 | 15 | 
2 | COc1ccccc1OCCN(C)C(=O)c1cc(=O)[nH]c2ccc(Cl)cc12 | 0.453 | 4.43 | 1 | 0.99 |  | 0 | 
3 | CC(=O)N[C@@H](C)C(=O)Nc1cnccc1C (stereo in doubt) | -12.3 | -7.91 | 1 | 1 |  | -0.127 | 
4 | Cc1ccccc1NC1CCN(c2ccc(S(N)(=O)=O)cc2)CC1 | 4.98 | 7.22 | 0.91 | 0.91 | 25.2 | 37.6 | 
5 | Cc1ccc(-c2cc(C(F)(F)F)nn2-c2ccc(S(N)(=O)=O)cc2)cc1 | 6.23 | 11.9 | 0.91 | 0.79 | 2.17 |  | 
6 | C=CC(=O)N(c1ccc(C(F)(F)F)cc1)C(C(=O)NCCc1cccc(F)c1)c1cccnc1 (stereo not given) | 50.7 | 72.7 | 0.99 | 0.94 |  | 100 | 6.12
7 | C=CC(=O)N(c1ccc(C(C)(C)C)cc1)C(C(=O)Nc1ccc(F)cc1C)c1cccnc1 (stereo not given) | 5.61 | 13.9 | 0.96 | 0.91 |  | 1.37 | 
8 | O=C(c1cc(=O)[nH]c2ccccc12)N1CCN(c2ccccc2)CC1 |  | 54.1 | 1 | 1 | 66.6 | 78.8 | 10.4
9 | C=CC(=O)N(c1ccc(C(C)(C)CC)cc1)C(C(=O)Nc1ccc(Cl)cc1)c1cccnc1 (stereo not given) | 16.5 | 22.7 | 0.82 | 0.68 | 11.3 |  | 
10 | C=CC(=O)N1CCCC(N(CC2CCCCC2)C2CCC(O)CC2)C1 (stereo not given) | -4.47 | -0.824 | 1 | 1 |  | 0 | 
11 | O=C(CCl)N1CCN(Cc2cccc3ccccc23)CC1 |  | 98.6 | 0.99 | 0.98 | 100 | 100 | 0.9
12 | Cc1nnc(NC(=O)Cc2cccc(Cl)c2F)s1 | 1.02 | -14.8 | 0.99 | 0.68 |  | 0 | 
13 | O=C(CCl)N1CCC(C(=O)N2CCCCC2)CC1 | 18.5 | 31.4 | 1 | 1 | 0.506 |  | 
14 | CN(C)C(=O)C[C@@H]1CN(C(=O)c2cnn3c2CCC3)c2ccc(Cl)cc21 (stereo in doubt) | -17.5 | -10.8 | 1 | 1 | 0 |  | 
15 | Cc1ccncc1-c1ccc(S(N)(=O)=O)cc1 |  | 8.58 | 1 | 1 | -2.96 | -2.15 | 
16 | C=CC(=O)N(c1ccc(C(C)(C)C)cc1)C(C(=O)NCCc1cccc(F)c1)c1cncc(C)c1 (stereo not given) | 49 | 78.2 | 0.8 | 0.28 |  | 0 | 
17 | C=CC(=O)N(c1ccc(C(C)C)nc1)C(C(=O)Nc1c(C)cccc1CC)c1cccnc1 (stereo not given) | 5.61 | 12.5 | 1 | 0.95 | 0 |  | 
18 | Cc1nnn(C)c1NC(=O)Cc1cccc(Cl)c1 | -9.24 | -12.3 | 1 | 1 |  | 5.47 | 
19 | Cc1cccc(CC2CCN(C(=O)CCl)CC2)c1 | 62.9 | 90.5 | 1 | 1 |  | 87.1 | 4.49
20 | C=CC(=O)N(c1ccc(C(F)(F)F)cc1)C(C(=O)Nc1c(C)cccc1CC)c1cccnc1 (stereo not given) | 22.3 | 38.6 | 0.89 | 0.79 | 23.9 |  | 
21 | O=C(NCCNc1ccnc2cc(Cl)ccc12)Nc1ccc(F)cc1 | 20.4 | 29.5 | 0.99 | 0.94 | 0 | 0 | 
22 | O=C(Cc1cccnc1)NCc1ccccc1 | 1.31 | 7.29 | 1 | 1 |  | 13 | 
23 | CC(NC(=O)c1ccc2cn[nH]c2c1)C(=O)Nc1ccc(-n2cnc3ccccc32)cc1 (stereo not given) | 13 | 3.73 | 0.7 | 0.51 |  | 12.8 | 
24 | COc1ccccc1OC(C)CNC(=O)c1cc(=O)[nH]c2cc(F)ccc12 (stereo not given) | 20 | 59 | 1 | 0.99 |  | 5.65 | 
25 | CC(C(=O)Nc1cnccc1C)=C1CC1 | 2.11 | -8.02 | 1 | 1 |  | 0 | 

Row | SMILES | inhibition ([1]; 20.0 µM) [%] | inhibition ([1]; 50.0 µM) [%] | relative solubility at 20 uM | relative solubility at 100 uM | inhibition ([2]; 20.0 µM) [%] | inhibition ([2]; 50.0 µM) [%] | IC50 [2] [µM]
26 | C=CC(=O)N(c1ccc(SC)cc1)C(C(=O)Nc1ccc(OC)cc1C)c1cccnc1 (stereo not given) | 8.27 | 22.2 | 0.95 | 0.84 | 0 |  | 
27 | O=C(c1cc(=O)[nH]c2ccc(F)cc12)N1CCN(S(=O)(=O)c2cccc(Cl)c2)CC1 | 1.39 | 25.7 | 0.98 | 0.87 |  | 52.8 | 
28 | CCn1c(=O)n(CC(=O)NCc2cnccn2)c2ccccc21 | 1.73 | 6.74 | 1 | 1 | 0 | 0 | 
29 | Cc1ccncc1NC(=O)Cc1cccc(C#N)c1 | 33.6 | 58.3 | 1 | 1.01 | 20.5 | 52.7 | 43.8
30 | O=C(Cc1ccc2[nH]c(=O)[nH]c2c1)NC1(CNC(=O)c2cnc[nH]2)CC1 | 6.85 | 3.02 | 1 | 1 |  | 76.6 | 27.3
31 | C=CC(=O)N(c1ccc(S(F)(F)(F)(F)F)cc1)C(C(=O)NC(C)(C)C)c1cccnc1 (stereo not given) | 11.1 | 23 | 0.98 | 0.9 | 6.54 |  | 
32 | CCN(C)CC1CCN(c2ccc(S(N)(=O)=O)cc2)CC1 | 3.39 | 6.02 | 1 | 0.98 | 0 | 0 | 
33 | O=C(c1cc(=O)[nH]c2ccc(Cl)cc12)N1CCN(S(=O)(=O)c2ccccc2F)CC1 | -7.48 | 4.42 | 0.94 | 0.91 |  | 17.1 | 
34 | CCCc1cc2c(cc1S(=O)(=O)N1CCN(c3ccccc3)CC1)OCO2 | 8.44 | -17.1 | 0.91 | 0.92 |  | 68.3 | 16
35 | O=C(NCC1COc2ccccc2O1)c1cc(=O)[nH]c2ccc(F)cc12 (stereo not given) | 3.84 | 18.6 | 1 | 0.79 |  | 16.4 | 
36 | C=CC(=O)N(c1ccc(C(C)(C)C)cc1)C(C(=O)NC(C)(C)C)c1cccnc1C (stereo not given) | -1.34 | 2.24 | 0.99 | 0.99 | 0 | 0 | 
37 | O=C(CCl)N1CCN(Cc2cccc(CNC(=O)N3CCOCC3)c2)CC1 | 11.7 | 32.4 | 1 | 1 |  | 95.6 | 50.3
38 | O=C(Nc1cccc(-c2cc[nH]n2)c1)C(O)c1cccnc1 (stereo not given) |  | 10.4 | 1 | 1 | 0 | 0 | 
39 | CCN1CCN(Cc2ccccc2CNC2=NC[C@@H](C3CCCC3)N2)CC1 (stereo in doubt) | -1.16 | -20.8 | 1 | 1 |  | -30.8 | 
40 | CCC(=O)Nc1cccc(OC2CC(=O)N2)c1 (stereo not given) | -4.99 | -6.23 | 1.01 | 1.01 |  | 0 | 
41 | CC(=O)N[C@@H](Cc1ccc(O)cc1)C(=O)NC(CN1CCN(C(=O)CCl)CC1)c1ccccc1 (stereo in doubt) | 21.3 | 41.2 | 0.99 | 1 |  | 31.1 | 
42 | CCOCC1CCN(c2ccc(S(N)(=O)=O)cc2)CC1 |  | 7.41 | 1 | 1 | 21.8 | 44.6 | 
43 | O=C(CCc1cnn[nH]1)NC(Cn1cccn1)c1ccccc1 (stereo not given) | -1.52 | -1.11 | 1 | 1 | 0 | 0 | 
44 | O=C(Cc1ccc2ccccc2c1)Nc1cc(C(F)(F)F)ccn1 | -2.55 | 3.43 | 0.9 | 0.38 | 11 | 29.3 | 
45 | O=C(c1cc(=O)[nH]c2ccccc12)N1CCN(c2ccccc2F)CC1 | 50.7 | 75.6 | 0.98 | 0.99 |  | 46.4 | 
46 | NC(=O)C1CCN(c2nnc(C3CCC(=O)N3)n2CCc2cc(F)cc(F)c2)CC1 (stereo not given) | 1.27 | 3.83 | 1 | 1 |  | 0 | 
47 | C=CC(=O)N(c1ccc(SC)cc1)C(C(=O)NC(C)(C)C)c1cccnc1 (stereo not given) | 3.54 | 7.75 | 1 | 0.99 | 0 |  | 
48 | C=CC(=O)N(c1ccc(C(C)(C)C)cc1)C(C(=O)Nc1ccc(OC)cc1)c1cccnc1 (stereo not given) |  | 12 | 0.95 | 0.71 | 0 | 0 | 
49 | Cc1ccncc1Cn1ccccc1=O | 3.62 | 7.02 | 1 | 1 |  | 6.5 | 
50 | Cc1ccncc1NC(=O)Cc1cccc(S(N)(=O)=O)c1 | 11.1 | 6.23 | 0.99 | 0.99 |  | 11.5 | 

Row | SMILES | inhibition ([1]; 20.0 µM) [%] | inhibition ([1]; 50.0 µM) [%] | relative solubility at 20 uM | relative solubility at 100 uM | inhibition ([2]; 20.0 µM) [%] | inhibition ([2]; 50.0 µM) [%] | IC50 [2] [µM]
51 | C=CC(=O)N(c1ccc(N(C)C)c(C)c1)C(C(=O)Nc1ccc(Cl)cc1)c1cccnc1 (stereo not given) | 4.26 | 12.1 | 0.88 | 0.78 | 0 |  | 
52 | O=C(Nc1cccnc1)Nc1cncc(Cl)c1 |  | 16.8 | 1 | 1 | 0 | -0.075 | 
53 | O=C(Cc1cccc(Cl)c1)Nc1cnccn1 | 3.71 | 13.3 | 1.01 | 1 |  | 0 | 
54 | O=C(Cn1c(=O)[nH]c2ccccc21)Nc1cccc(Cl)c1 | -4.28 | -9.78 | 1 | 0.64 |  | 0 | 
55 | O=C(NCc1cncs1)Nc1cccc(N2CCOCC2)c1 | 5.65 | 13.6 | 1 | 1.01 | 0.672 | 23.8 | 
56 | O=C(Cc1c[nH]c2ncccc12)NCc1ccc(Cl)cn1 | 1.55 | 4.16 | 1 | 1 | 0 |  | 
57 | NC(=O)CCN(C(=O)CCl)C1CCS(=O)(=O)C1 (stereo not given) |  | 18.6 | 1 | 1 | 16.3 | 34.1 | 
58 | O=C(NCc1coc2ccccc12)C1CCc2nnc(-c3ccc(O)cc3)n2C1 (stereo not given) | -9.94 | 2.5 | 0.89 | 0.94 |  | 55.3 | 
59 | C=CC(=O)N(c1ccc(C(F)(F)F)cc1)C(C(=O)NCCc1cccc(F)c1)c1cncc(C#N)c1 (stereo not given) | 53.5 | 93.2 | 1 | 0.99 |  | 96.5 | 3.01
60 | Cc1ccnc2[nH]c(CC3CCN(C(=O)CCl)CC3)nc12 | 5.18 | 18.1 | 1 | 1 |  | 100 | 29.7
61 | C=CC(=O)N(c1ccc2ncsc2c1)C(C(=O)NC(C)(C)C)c1cccnc1 (stereo not given) | 9.29 | 0.772 | 1 | 1 | 0 |  | 
62 | NS(=O)(=O)c1ccc(N2CCC(N3CCCCC3)CC2)cc1 |  | 7.79 | 1 | 1 | 0 | 0 | 
63 | O=C(Nc1ccc(N(Cc2ccsc2)C(=O)Cn2nnc3ccccc32)cc1)C1CC1 | 69 | 70.2 | 0.9 | 0.59 |  | 62.2 | 28.4
64 | Cc1nc(CCn2c(C3CCC(=O)N3)nnc2N2CCOC(C)(C)C2)n[nH]1 (stereo not given) | -0.233 | 2.23 | 1 | 1 |  | 4.69 | 
65 | O=C(NCc1cccnn1)Nc1cccc(OCCN2CCOCC2)c1 | 1.16 | 1.22 | 1 | 0.99 | 0 | 0 | 
66 | C=CC(=O)NCc1ccc(C(C)NC(=O)OC(C)(C)C)cc1 (stereo not given) |  | 6.84 | 1 | 1.01 | 0 | 0 | 
67 | Cc1ccncc1NC(=O)CCc1nc2cc(Cl)ccc2o1 | 10.4 | 13.1 | 0.99 | 1 |  | 0 | 
68 | O=C(NCC1COc2ccccc2O1)c1cc(=O)[nH]c2cc(F)ccc12 (stereo not given) | -0.372 | -2.5 | 0.98 | 0.62 |  | 3.98 | 
69 | Cn1cnnc1NC(=O)Cc1cccc(Cl)c1F | 5.1 | -1.13 | 0.98 | 0.99 |  | -13.1 | 
70 | C=CC(=O)N(c1ccc(C(F)(F)F)cc1)C(C(=O)NCCc1cccc(F)c1)c1cncc(C)c1 (stereo not given) | 38.8 | 63 | 0.91 | 0.73 |  | 91.6 | 7.72
71 | O=C(Nc1nncn1C1CC1)[C@H]1CCOc2ccc(Cl)cc21 (stereo in doubt) | -13.3 | -7.61 | 1.01 | 1 |  | -19.4 | 
72 | O=C1Nc2ccc(Br)cc2C1=O | -2.12 | -1.05 | 1 | 0.99 |  | 66.1 | 30.3
73 | CCC(NC(=O)C(C)n1cncn1)c1ccccc1OCC(=O)N1CCCC1 (stereo not given) | -0.907 | 0.701 | 1 | 0.99 | 0 | 0 | 
